Results: US12146871B2, “Method and device for physicochemical characterization of materials” (THE SOLUBILITY COMPANY OY, priority 2016, dated 2024)

Experiment: partition coefficient from intrinsic solubility in octanol and water by image analysis of individual crystals
Assay type: physicochemical
Details: octanol and water (separate solubilities); from aqueous solubility of the unionized form (pH 2-3) and solubility in octanol
Method: A solubility-pH profile was performed in aqueous buffers over the physiologically relevant range of pH 2-9. […] Additionally, using logP, pKa and pH data, the logD value was determined as a function of pH. All parameters determined using the present method correlated with theory and literature data. Thus, by only observing and characterizing one variable, i.e. the particle(s) size decrease of an individual crystal, it is possible to mine, in a high-content analysis (HCA) manner, a full physicochemical profile of six fundamental material characteristics for a material. Analysis device was constructed as a flow-through device consisting of two resistant flat metal plates. In the lower thereof a 1 mm hole was drilled as an outlet channel. The top metal plate hosted the inlet channel and was prepared with a glass window to facilitate detecting. A 0.2 μm inorganic membrane filter (Whatman nuclepore) was placed on the bottom plate and the particle(s) to be analyzed placed on top of the portion of the membrane filter being above the outlet channel. […] Equilibrium solubility, S was calculated from image analysis data based on a reorganized single-particle diffusion layer model dissolution rate equation, where S0 is the intrinsic solubility of the unionized form. Further, based on intrinsic solubility data in octanol and water the partition coefficient (logP) was determined according to, […]

logP: 4.1
SMILES: COc1ccc2c(c1)c(CC(=O)O)c(C)n2C(=O)c1ccc(Cl)cc1 [indomethacin]
